Source: PMC3785238 (Cell, 2013)
Non-standard residues stand in square brackets, D forms with d. No end group written: not given here. pS = N[C@@H](COP(=O)(O)O)C(=O)O

What was measured:
NMDA receptors = experiment: Whole-cell voltage clamp: mGluR5-SIC, NMDA receptor dependence; format: cell-based
mGluR5-SIC [1] = format: cell-based, mouse; details: Homer1−/−Homer2−/−Homer3−/− neurons; for effect of Pin1 peptide on BDNF potentiation of mGluR5-SIC: 0.5 μM in the pipette, n = 5
Homer1a [2] = target: T1, Homer1a (Rattus norvegicus, UniProt Q9Z214); experiment: Homer1a induction in cultured striatal neurons; format: cell-based; details: 30 min, 50 mM KCl
T1 sequence (Q9Z214 1-186 isoform Q9Z214-3): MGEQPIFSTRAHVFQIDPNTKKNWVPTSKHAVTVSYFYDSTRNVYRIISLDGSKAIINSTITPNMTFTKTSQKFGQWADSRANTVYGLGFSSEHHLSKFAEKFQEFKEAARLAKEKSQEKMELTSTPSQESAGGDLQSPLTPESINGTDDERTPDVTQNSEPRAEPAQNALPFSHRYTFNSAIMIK

mGluR5 [3] = details: bath application, 5 μM
mGluR5-SIC [4] = experiment: Whole-cell voltage clamp: SKF38393; format: cell-based, mouse
[5] = system: corticostriatal synapse depotentiation; experiment: Field potential recording: depotentiation of corticostriatal LTP; parameters: species or system mouse; details: SKF38393 3 μM
mGluR5 [6] = experiment: mGluR5 phosphorylation and Homer1a expression in mouse striatum; format: in vivo
Pin1-mGluR5 = experiment: Pin1 co-immunoprecipitation with mGluR5 from mouse striatum; format: in vivo
[7] = system: locomotor activity of mice; experiment: Cocaine locomotion and motor sensitization; format: in vivo, mouse
[8] = system: glutamate and dopamine in the nucleus accumbens; experiment: In vivo microdialysis: glutamate and dopamine in nucleus accumbens; parameters: species or system mouse
GST-Pin1 = format: binding; details: mGluR5 expressed in HEK293 cells
Homer1a [9] = target: T1, Homer1a; experiment: ITC of mGluR5 peptide into full length Homer1a; format: binding; details: versus unphosphorylated peptide
Pin1 = Pin1 (Homo sapiens, UniProt Q13526); experiment: 15N ZZ-exchange NMR: Pin1-catalyzed cis/trans isomerization of mGluR5 peptide; format: biochemical; details: Homer1a equimolar to peptide; Pin1 sub-stoichiometric (1:10)
[10] = 20 mg/kg, i.p., mice, n = 6 each group
[11] = i.p. four times, 10 or 30 mg/kg
[12] = 10 mg/kg, WT n = 7, Grm5AA/AA n = 9

Chain of Pin1 (Q13526 whole entry, species assumed): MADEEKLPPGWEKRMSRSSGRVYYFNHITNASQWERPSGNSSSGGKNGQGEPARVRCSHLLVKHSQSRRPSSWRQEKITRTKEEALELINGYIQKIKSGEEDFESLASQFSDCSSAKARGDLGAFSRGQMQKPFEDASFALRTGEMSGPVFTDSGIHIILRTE

N[C@@H](CCCP(=O)(O)O)C(=O)O [APV]
block of mGluR5-SIC by APV (NMDA receptors; 50 μM): blocked

COC(=O)[C@@]1(O)C[C@H]2O[C@]1(C)n1c3ccccc3c3c4c(c5c6ccccc6n2c5c31)C(=O)NC4 [K252a]
block of BDNF potentiation of mGluR5-SIC by TrkB inhibitor (mGluR5-SIC [1]; 100 nM): blocked BDNF potentiation

[Cl-].[K+] [KCl]
Homer1a induction (Homer1a [2]): induced Homer1a

C[C@]12N[C@H](Cc3ccccc31)c1ccccc12 [MK-801]
block of mGluR-SIC by MK-801 (NMDA receptors; in the recording pipette): Blockade

Cc1cccc(C#Cc2ccccc2)n1 [MPEP, 2-Methyl-6-(phenylethynyl)pyridine]
block of mGluR5-SIC by MPEP (mGluR5 [3]): blocked

O=C(O)[C@@H]1[C@H](C(=O)O)NCCN1C(=O)c1ccc2c(ccc3ccccc32)c1 [PPDA]
block of mGluR5-SIC by PPDA (NMDA receptors; 0.2 μM): blocked

Oc1cc2c(cc1O)C(c1ccccc1)CNCC2 (stereo not shown) [SKF38393]
mGluR5-SIC potentiation, D1R-GFP neurons (mGluR5-SIC [4]; SKF38393 1 μM after KCl pretreatment, D1-GFP, n = 8, p < 0.001): robust and consistent potentiation | mGluR5-SIC potentiation, D2-GFP neurons (mGluR5-SIC [4]; SKF38393 1 μM after KCl pretreatment, D2-GFP, n = 10): not D2 receptor-expressing neurons | mGluR5-SIC potentiation, Homer triple knockout neurons (mGluR5-SIC [4]; SKF38393 1 μM, bath, Homer1−/−Homer2−/−Homer3−/− neurons): potentiated | neurons with potentiation of mGluR5-SIC (mGluR5-SIC [4]; SKF38393 1 μM, Homer1−/−Homer2−/−Homer3−/− neurons, p < 0.005): 6 of 13 neurons | depotentiation, pretreatment, WT slices ([5]; 0.5 hrs before HFS, n = 6 and n = 8): prevented depotentiation | depotentiation, pretreatment, Homer1a−/− slices ([5]; 0.5 hrs before HFS, n = 10): failed to block depotentiation | depotentiation, pretreatment, Grm5AA/AA slices ([5]; 0.5 hrs before HFS, n = 12): failed to block depotentiation | depotentiation, acute, WT slices ([5]; beginning 25 min after HFS, n = 4): did not block depotentiation | depotentiation, acute, Grm5R/R slices ([5]; beginning 25 min after HFS, n = 6): did block depotentiation

N#CC(=C(/N)Sc1ccccc1N)/C(C#N)=C(/N)Sc1ccccc1N [UO126]
block of BDNF potentiation of mGluR5-SIC by MEK inhibitor (mGluR5-SIC [1]; 20 μM): blocked BDNF potentiation

COC(=O)[C@H]1[C@@H](OC(=O)c2ccccc2)C[C@@H]2CC[C@H]1N2C [cocaine]
mGluR5 phosphorylation, WT and Homer triple knockout (mGluR5 [6]; 10 mg/kg, i.p., 30 min, WT n = 6, Homer1−/−Homer2−/−Homer3−/− n = 7, versus saline): increased mGluR5 phosphorylation | Homer1a expression in striatum (mGluR5 [6]; [10]): induces Homer1a expression | mGluR5 Ser-1126 phosphorylation in striatum (mGluR5 [6]; [10]): induces transient phosphorylation | mGluR5 Thr-1123 phosphorylation in striatum (mGluR5 [6]; [10]): not Thr-1123 | double phosphorylation of mGluR5 (mGluR5 [6]; cocaine administration, immunoselection of pT1123): Double phosphorylation is induced | Pin1 co-immunoprecipitation with mGluR5, Homer triple knockout (Pin1-mGluR5; 10 mg/kg, i.p., 30 min, Homer1−/−Homer2−/−Homer3−/− mice): increases after cocaine administration | increase of Pin1 binding, WT mice (Pin1-mGluR5; acute cocaine, WT mice): did not detect an increase of Pin1 binding in WT mice | acute locomotor response, Grm5AA/AA mice ([7]; acute, i.p., 10 or 30 mg/kg): increased locomotor response to acute cocaine | acute locomotor response, Grm5TS/AAPin1+/− double heterozygotes ([7]; acute, i.p., 10 or 30 mg/kg): WT-levels of activity in response to acute cocaine | motor sensitization, Grm5AA/AA mice [7, 11]: markedly reduced sensitization | motor sensitization, Grm5TS/AAPin1+/− double heterozygotes [7, 11]: reduced motor sensitization | motor sensitization, Homer1a−/− mice [7, 11]: profound deficit of cocaine motor sensitization | acute locomotor response, Homer1a−/− mice ([7]; initial dose, i.p. 10 or 30 mg/kg): WT-like response to the initial dose of cocaine | dopamine response, Grm5AA/AA mice, 1st injection [8, 12]: modest reduction | glutamate response, Grm5AA/AA mice, 1st injection [8, 12]: normal glutamate response | glutamate and dopamine response, Grm5AA/AA mice, 4th injection ([8]; 10 mg/kg, WT n = 7, Grm5AA/AA n = 9, P < 0.05): blunted neurotransmitter responsiveness | glutamate and dopamine response, Homer1a−/− mice, 1st injection ([8]; 30 mg/kg, n = 8 each group): normal glutamate and dopamine responses | glutamate and dopamine response, Homer1a−/− mice, 4th injection ([8]; 30 mg/kg, n = 8 each group, P < 0.05): blunted neurotransmitter responsiveness

CC(C(O)c1ccc(O)cc1)N1CCC(Cc2ccccc2)CC1 (stereo not shown) [ifenprodil]
block of mGluR5-SIC by ifenprodil (NMDA receptors): blocked

Ac-FY[pS]PR-NH2 [Pin1 control peptide mimic]
effect of Pin1 peptide on BDNF potentiation of mGluR5-SIC (mGluR5-SIC [1]): not by Pin1 control peptide mimic

Ac–Phe–Phe–pSer-Ψ[(Z)CH=C]-Pro–Arg–NH2 [Pin1 peptide mimic inhibitor]
effect of Pin1 peptide on BDNF potentiation of mGluR5-SIC (mGluR5-SIC [1]): blocked

WT mGluR5: full-length mGluR5 expressed in HEK293 cells
GST-Pin1 binding to full-length mGluR5 (GST-Pin1): bound

mGluR5(S1126A): mutant that prevents phosphorylation at S1126
GST-Pin1 binding to full-length mGluR5 (GST-Pin1): bound

mGluR5(T1123A): mutant that prevents phosphorylation at T1123
GST-Pin1 binding to full-length mGluR5 (GST-Pin1): bound

mGluR5(T1123A, S1126A): mutant that prevents phosphorylation at both sites
GST-Pin1 binding to full-length mGluR5 (GST-Pin1): did not bind

mGluR5-pS: mGluR5 peptide phosphorylated at S^1126 in vitro (KELVALTPP[pS]PFRD)
increase in Homer1a affinity on S1126 phosphorylation (Homer1a [9]): > 10 fold | Pin1 catalysis of pS1126-P bond in the presence of equimolar Homer1a (Pin1): Pin1 was able to catalyze isomerization of pS^1126-P bond
